{"source": "paper PMC5073322", "about": "“Novel Natural Product-like Caged Xanthones Bearing a Carbamate Moiety Exhibit Antitumor Potency and Anti-Angiogenesis Activity In vivo” (Scientific Reports, 2016)", "key": {"[1]": {"test_system": "Caspase-3 and PARP in HepG2 cells", "experiment": "Western blot of apoptosis-related proteins", "type": "cell-based, human", "conditions": "HepG2, 24 h", "procedure": "Figure 6 (A) Morphological changes in cancer cells and nuclei. (B) 8n induced apoptosis in HepG2 cells. Cultured HepG2 cells were treated with the indicated concentrations of 8n for 48 h. The cells were then were stained with DAPI and observed by fluorescence microscopy. (C) 8n induces apoptosis in a dose-dependent manner. HepG2 cells were treated with different concentrations of 8n for 48 h, and Annexin V and propidium iodide staining were performed. (D) The percentages of early apoptotic and total apoptotic cells were quantified using flow cytometry. *p < 0.05; **p < 0.01. (E) The expression of apoptotic-related proteins in HepG2 cells treated with 8n. HepG2 cells were treated with various concentrations of 8n for 24 h and were then harvested and lysed. The expression levels of Caspase-3, Cleaved Caspase-3, Bax, Bcl-2, PARP and cleaved PARP were measured by Western blotting. TEXT PRINTED IN THE PICTURE: (C) Compound 8n: Dead 1.50 % (Control); Late Apop./Dead 4.95 % (Control); Early Apop. 1.05 % (Control); Dead 1.95 % (0.1 μM); Late Apop./Dead 7.80 % (0.1 μM); Early Apop. 1.60 % (0.1 μM); Dead 7.81 % (0.3 μM); Late Apop./Dead 9.19 % (0.3 μM); Early Apop. […]\nThe cells were washed with PBS and lysed with ice-cold lysis buffer supplemented with protease inhibitors (Roche) for 30 min. The protein content of the supernatants of lysates was determined using a bicinchoninic acid assay. […]"}, "HepG2 tumours": {"test_system": "HepG2 tumours", "experiment": "HepG2 hepatoblastoma xenograft in nude mice", "type": "in vivo", "conditions": "20 days; for inhibition of the tumour volume: IV, twice-daily", "procedure": "Given the in vitro anti-tumour cell activity of 8n, we continued to evaluate its in vivo effect in hepatoblastoma xenograft models using previously reported methods, and the water-soluble anti-cancer drug 5-fluorouracil (5-FU) was used as a positive control. After tumours were established, the mice were IV injected with 2.5, 5, 10 or 50 mg/kg 8n; the lead compound DDO-6101 and antitumour drug 5-FU were used as controls. All mice had normal weights and quality of life in in vivo tests. […] The in vivo activity of 8n was also evaluated after oral administration. […] This observation may be attributed to the improved physicochemical properties of 8n compared to those of DDO-6101, such as aqueous solubility and cell membrane permeability, which were provided by modification with the carbamate moiety.\nFigure 7 (A) The tumour diameters were measured and used to calculate the tumour volumes. The HepG2 xenograft-bearing mice were intravenously injected with 2.5, 5, 10 and 50 mg/kg 8n for 20 days. (B) After 20 days, mice were sacrificed and the individual tumours were weighed. *p < 0.05, […]; Student’s t-test (n = 6). (C) The tumour diameters were measured and used to calculate the tumour volumes. The HepG2 xenograft-bearing mice were orally administered 50 mg/kg 8n, 50 mg/kg DDO-6101 or 10 mg/kg 5-FU for 20 days.\nAll studies were performed in compliance with the relevant guidelines and regulations. Tumours on female nude mice were established by injecting 1×10^7 HepG2 cells on the dorsal surface. After four weeks, tumours of approximately 150 mm^3 were cut into pieces that were 3 mm×3 mm×3 mm in size and were then implanted in the dorsal surface of other female nude mice. One week later, mice implanted with xenografts of 100 mm^3 were selected, randomized, and […] injected with 2.5, 5, or 10-mg/kg 8n or vehicle daily for another three weeks. The tumour dimensions were measured daily with vernier calipers, and the tumour volumes were calculated using the formula: volume = (width)^2 × length/2."}, "HepG2": {"test_system": "HepG2", "experiment": "MTT antiproliferative assay, HepG2", "conditions": "read-out: IC50 HepG2; MTT, 72 h", "quoted_text": "The inhibition of tumour cell growth was measured by a modified tetrazolium (MTT) salt assay, as previously described[39]. Cells were cultured in a 96-well plate and treated with culture medium alone or different concentrations of the compounds. The cells were incubated for 72 h, and then, the MTT assay reagent was added. After a 4 h incubation, the formazan product was quantitated at 570 nm. The IC50 values (the concentrations that gave rise to 50% inhibition of cell viability) were calculated using GraphPad Prism 6 using a variable slope (four parameters)."}, "Water solubility by HPLC": {"experiment": "Water solubility by HPLC", "type": "physicochemical", "conditions": "deionized water, stirred overnight, HPLC 290 nm", "description": "The physicochemical characteristics of compounds directly determine their potential drug-like properties. Assessing a compound’s physicochemical properties before performing in vivo evaluations can guide further studies and minimize the time and cost associated with drug discovery. Therefore, parallel to the in vivo study, these solubilities of these compounds in water were experimentally measured using high-performance liquid chromatography (HPLC). Based on the results of full wave scanning, 290 nm was chosen as the maximum absorption wavelength for HPLC detection.\nA HPLC system with an ultraviolet (UV) detector was used to detect the solubility of the compounds. The optimal wavelength was 290 nm. Ethanol/water (85:15) was an efficient eluent at a flow rate of 0.5 mL/min. The compounds were stirred in deionized water overnight to maximize the retention of the compounds in solution. Then, the solutions were filtered and the supernatant was used as a fluid sample for HPLC detection. The permeability (Pe) of some of the compounds was tested with the help of a standard PAMPA (pION), as previously reported. PAMPA was performed on a PAMPA Explorer instrument (pION, Inc., Woburn, MA) with the PAMPA Explorer command software (Version 3.7.4.1). The compounds were diluted to 10 mM with the system solution buffer (pH 7.4). Then, 150 μL of the diluted compound solution was transferred to a UV plate, and the UV spectrum was collected and used as a reference. Then, paint the membrane with 5 μL of gastrointestinal tract (GIT) lipid. The acceptor chamber was filled with 200 μL of acceptor solution buffer, and the donor chamber was filled with 200 μL of diluted compound solution. The PAMPA sandwich was assembled and left at 25 °C for 4 h. The UV spectra (240–500 nm) from the donor and the acceptor were collected. The permeability coefficient was calculated with the PAMPA Explorer Command software (Version 3.7.4.1) based on the area under the curve (AUC) of the reference plate, the donor plate, and the acceptor plate. The permeability coefficient of the compound was tested for four times, and the data are shown as the average values. Ketoprofen (4.5×10^−6 cm/s) and propranolol (112.8×10^−6 cm/s) were used as the standards in this assay."}}, "data": [{"smiles": "CC(C)=CCC12OC(C)(C)C3CC(C=C4C(=O)c5c(OC(=O)N6CCC(N7CCCCC7)CC6)cccc5OC431)C2=O", "note": "(stereo not shown) [Compound 8n]", "values": [{"measurement": "levels of cleaved caspase-3/PARP", "setting": "[1]", "value": "increased"}, {"measurement": "inhibition of the tumour volume", "setting": "HepG2 tumours; 2.5 mg/kg", "value": 27.97, "unit": "%"}, {"measurement": "inhibition of the tumour volume", "setting": "HepG2 tumours; 5 mg/kg", "value": 38.50, "unit": "%"}, {"measurement": "inhibition of the tumour volume", "setting": "HepG2 tumours; 10 mg/kg", "value": 48.36, "unit": "%"}, {"measurement": "inhibition of tumour growth", "setting": "HepG2 tumours; 50 mg/kg, oral, daily", "value": 30.12, "unit": "%"}, {"measurement": "IC50", "setting": "HepG2", "value": "1320 ± 450", "unit": "nM"}, {"measurement": "S, water solubility", "setting": "Water solubility by HPLC", "value": ">40", "unit": "mM"}]}]}
